Experimental data from patent publication US20110152269A1, “PROCESS FOR TREATING ANIMAL HABITATS” (H&S Chemical Company, Inc., priority 2001, published 2011).

Legend:
[1] = Ammonia concentration in treated poultry houses during grow out; details: houses and bedding sprayed with 200 ppm aqueous solution before placement of birds; two houses of 26,000 birds; wood chip bedding; 57 day grow out
Description: Two poultry houses containing 26,000 birds each were treated, by spraying the houses and bedding contained therein, with an aqueous solution of a product sold under the trademark PLT, at a concentration of 200 ppm. Treatment was effected prior to placement of the birds in the poultry houses. The bedding utilized was popular wood chips. After 57 days the grow out was complete. During the grow out periods the concentration of ammonia in the poultry houses varied between 30 and 70 ppm. […] Two poultry houses containing 26,000 birds each were treated by spraying the houses and bedding contained therein with an aqueous solution of TCM, at a concentration of 200 ppm. Treatment was effected prior to placement of the birds in the poultry houses. The bedding utilized was popular wood chips. After 57 days the grow out was complete. During the grow out the concentration of ammonia in the poultry houses never exceeded 20 ppm.

salmonella = test: Monitoring for salmonella in treated poultry houses during grow out; details: houses and bedding sprayed with 200 ppm aqueous solution before placement of birds; two houses of 25,000 birds; wood chip bedding; 56 day grow out
Description: Two poultry houses containing 25,000 birds each were treated by spraying the houses and bedding contained therein with an aqueous solution of TCM, at a concentration of 200 ppm. Treatment was effected prior to placement of the birds in the poultry house. The bedding utilized was popular wood chips. After 56 days the grow out was complete. During the grow out the presence of salmonella was monitored.
An untreated poultry house containing 25,000 birds was monitored during a 56 day grow out for the presence of salmonella. The bedding utilized was popular wood chips. After 56 days the grow out was complete. During the grow out the poultry house tested positive for salmonella.

## trichloromelamine [TCM]
[1]
  concentration of ammonia in the poultry houses: ≤ 20 ppm
salmonella
  presence of salmonella during the grow out: no salmonella was detected
